Measurements reported in patent US9486506B2 (Novo Nordisk A/S, priority 2011, dated 2016).
Numbered stars: 1 amine (or outer) side, 2 acyl side, 3 side chain; on linkers, the order of the positions; unused ones are H or OH. Side chains are listed from the residue outwards. Peptide text beside a SMILES is read from it. * marks the point of attachment. C18 diacid = O=C(O)CCCCCCCCCCCCCCCCC(=O)*; C16 diacid = O=C(O)CCCCCCCCCCCCCCC(=O)*; γGlu = O=C(O)[C@H](CCC(=O)[*:2])N[*:1]; AEEA = NCCOCCOCC(=O)O

Molecular target: T1, glucagon receptor (Homo sapiens, UniProt P47871)
T1 construct: expressed in transfected cells
T1 sequence (P47871 26-477): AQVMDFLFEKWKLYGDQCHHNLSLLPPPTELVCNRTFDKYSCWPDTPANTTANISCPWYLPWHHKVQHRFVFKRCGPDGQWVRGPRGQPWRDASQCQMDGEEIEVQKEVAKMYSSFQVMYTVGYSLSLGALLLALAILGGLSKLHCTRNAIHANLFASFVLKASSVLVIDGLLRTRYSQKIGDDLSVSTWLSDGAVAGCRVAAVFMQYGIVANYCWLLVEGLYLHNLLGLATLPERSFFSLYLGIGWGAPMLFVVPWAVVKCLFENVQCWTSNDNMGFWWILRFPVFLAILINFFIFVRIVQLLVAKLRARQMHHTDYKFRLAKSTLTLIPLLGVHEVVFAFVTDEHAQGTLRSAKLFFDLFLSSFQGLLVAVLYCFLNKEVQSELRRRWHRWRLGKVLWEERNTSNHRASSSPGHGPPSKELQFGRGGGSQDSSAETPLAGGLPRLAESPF
Assay: Assay (I) Glucagon activity (cAMP biosensor, FLIPR)
Assay type: cell-based

SMILES	EC50 [nM]
CC(C)C[C@H](NC(=O)[C@H](CC(=O)O)NC(=O)[C@H](CC(C)C)NC(=O)[C@H](Cc1ccc(O)cc1)NC(=O)[C@H](CCCNC(=N)N)NC(=O)[C@H](CO)NC(=O)[C@H](Cc1ccc(O)cc1)NC(=O)[C@H](CC(=O)O)NC(=O)[C@H](CO)NC(=O)[C@@H](NC(=O)[C@H](Cc1ccccc1)NC(=O)[C@@H](NC(=O)CNC(=O)[C@H](CCC(N)=O)NC(=O)[C@H](CO)NC(=O)[C@@H](N)Cc1c[nH]cn1)[C@@H](C)O)[C@@H](C)O)C(=O)N[C@@H](CCCNC(=N)N)C(=O)N[C@@H](CCCNC(=N)N)C(=O)N[C@@H](C)C(=O)N[C@@H](CCC(N)=O)C(=O)N[C@@H](CC(=O)O)C(=O)N[C@@H](Cc1ccccc1)C(=O)N[C@H](C(=O)N[C@@H](CCCCNC(=O)CC[C@H](NC(=O)CC[C@H](NC(=O)COCCOCCNC(=O)COCCOCCNC(=O)CC[C@H](NC(=O)CCCCCCCCCCCCCCCCC(=O)O)C(=O)O)C(=O)O)C(=O)O)C(=O)N[C@@H](Cc1c[nH]c2ccccc12)C(=O)N[C@@H](CC(C)C)C(=O)N[C@@H](CCC(=O)O)C(=O)N[C@@H](CO)C(=O)N[C@H](C(=O)O)[C@@H](C)O)C(C)C [Example 47, N^ε24-[(4S)-4-carboxy-4-[[(4S)-4-carboxy-4-[[2-[2-[2-[[2-[2-[2-[[(4S)-4-carboxy-4-(17-carboxyheptadecanoylamino)butanoyl]amino]ethoxy]ethoxy]acetyl]amino]ethoxy]ethoxy]acetyl]amino]butanoyl]amino]butanoyl]-[Arg12,Leu16,Lys24,Glu27,Ser28]-Glucagon] (H-HSQGTFTSDYSRYLDLRRAQDFVK([γGlu-γGlu-AEEA-AEEA-γGlu-C18 diacid])WLEST-OH)	0.136
CC(C)C[C@H](NC(=O)[C@H](Cc1ccc(O)cc1)NC(=O)[C@H](CCCCN)NC(=O)[C@H](CO)NC(=O)[C@H](Cc1ccc(O)cc1)NC(=O)[C@H](CC(=O)O)NC(=O)[C@H](CO)NC(=O)[C@@H](NC(=O)[C@H](Cc1ccccc1)NC(=O)[C@@H](NC(=O)CNC(=O)[C@H](CCC(N)=O)NC(=O)[C@H](CO)NC(=O)[C@@H](N)Cc1c[nH]cn1)[C@@H](C)O)[C@@H](C)O)C(=O)N[C@@H](CCC(=O)O)C(=O)N[C@@H](CO)C(=O)N[C@@H](CCCNC(=N)N)C(=O)N[C@@H](CCCNC(=N)N)C(=O)N[C@@H](C)C(=O)N[C@@H](CCC(N)=O)C(=O)N[C@@H](CC(=O)O)C(=O)N[C@@H](Cc1ccccc1)C(=O)N[C@H](C(=O)N[C@@H](CCCCNC(=O)CC[C@H](NC(=O)CC[C@H](NC(=O)COCCOCCNC(=O)COCCOCCNC(=O)CC[C@H](NC(=O)CCCCCCCCCCCCCCCCC(=O)O)C(=O)O)C(=O)O)C(=O)O)C(=O)N[C@@H](Cc1c[nH]c2ccccc12)C(=O)N[C@@H](CC(C)C)C(=O)N[C@@H](CC(C)C)C(=O)N[C@@H](CCC(N)=O)C(=O)N[C@H](C(=O)O)[C@@H](C)O)C(C)C [Example 60, N^ε24-[(4S)-4-carboxy-4-[[(4S)-4-carboxy-4-[[2-[2-[2-[[2-[2-[2-[[(4S)-4-carboxy-4-(17-carboxyheptadecanoylamino)butanoyl]amino]ethoxy]ethoxy]acetyl]amino]ethoxy]ethoxy]acetyl]amino]butanoyl]amino]butanoyl]-[Glu15,Lys24,Leu27,Gln28]-Glucagon]	0.517
CC(C)C[C@H](NC(=O)[C@H](Cc1ccc(O)cc1)NC(=O)[C@H](CCCNC(=N)N)NC(=O)[C@H](CO)NC(=O)[C@H](Cc1ccc(O)cc1)NC(=O)[C@H](CC(=O)O)NC(=O)[C@H](CO)NC(=O)[C@@H](NC(=O)[C@H](Cc1ccccc1)NC(=O)[C@@H](NC(=O)CNC(=O)[C@H](CCC(N)=O)NC(=O)[C@H](CO)NC(=O)[C@@H](N)Cc1c[nH]cn1)[C@@H](C)O)[C@@H](C)O)C(=O)N[C@@H](CCC(=O)O)C(=O)N[C@@H](CO)C(=O)N[C@@H](CCCNC(=N)N)C(=O)N[C@@H](CCCNC(=N)N)C(=O)N[C@@H](C)C(=O)N[C@@H](CCC(N)=O)C(=O)N[C@@H](CCC(=O)O)C(=O)N[C@@H](Cc1ccccc1)C(=O)N[C@H](C(=O)N[C@@H](CCCCNC(=O)CC[C@H](NC(=O)CC[C@H](NC(=O)COCCOCCNC(=O)COCCOCCNC(=O)CC[C@H](NC(=O)CCCCCCCCCCCCCCC(=O)O)C(=O)O)C(=O)O)C(=O)O)C(=O)N[C@@H](Cc1c[nH]c2ccccc12)C(=O)N[C@@H](CC(C)C)C(=O)N[C@@H](CC(C)C)C(=O)N[C@@H](CO)C(=O)N[C@H](C(=O)O)[C@@H](C)O)C(C)C [Example 71, N^ε24-[(4S)-4-carboxy-4-[[(4S)-4-carboxy-4-[[2-[2-[2-[[2-[2-[2-[[(4S)-4-carboxy-4-(15-carboxypentadecanoylamino)butanoyl]amino]ethoxy]ethoxy]acetyl]amino]ethoxy]ethoxy]acetyl]amino]butanoyl]amino]butanoyl]-[Arg12,Glu15,Glu21,Lys24,Leu27,Ser28]-Glucagon] (H-HSQGTFTSDYSRYLESRRAQEFVK([γGlu-γGlu-AEEA-AEEA-γGlu-C16 diacid])WLLST-OH)	0.072
CC(C)C[C@H](NC(=O)[C@H](Cc1c[nH]c2ccccc12)NC(=O)[C@H](CCCCNC(=O)CC[C@H](NC(=O)CC[C@H](NC(=O)COCCOCCNC(=O)COCCOCCNC(=O)CC[C@H](NC(=O)CCCCCCCCCCCCCCCCC(=O)O)C(=O)O)C(=O)O)C(=O)O)NC(=O)[C@@H](NC(=O)[C@H](Cc1ccccc1)NC(=O)[C@H](CCC(=O)O)NC(=O)[C@H](CCC(N)=O)NC(=O)[C@H](C)NC(=O)[C@H](CCCNC(=N)N)NC(=O)[C@H](CCCNC(=N)N)NC(=O)[C@@H](NC(=O)[C@H](CC(=O)O)NC(=O)[C@H](CC(C)C)NC(=O)[C@H](Cc1ccc(O)cc1)NC(=O)[C@H](CCCCN)NC(=O)[C@H](CO)NC(=O)[C@H](Cc1ccc(O)cc1)NC(=O)[C@H](CC(=O)O)NC(=O)[C@H](CO)NC(=O)[C@@H](NC(=O)[C@H](Cc1ccccc1)NC(=O)[C@@H](NC(=O)CNC(=O)[C@H](CCC(N)=O)NC(=O)[C@H](CO)NC(=O)[C@@H](N)Cc1c[nH]cn1)[C@@H](C)O)[C@@H](C)O)[C@@H](C)O)C(C)C)C(=O)N[C@@H](CC(C)C)C(=O)N[C@@H](CO)C(=O)N[C@H](C(=O)O)[C@@H](C)O [Example 31, N^ε24-[(4S)-4-carboxy-4-[[(4S)-4-carboxy-4-[[2-[2-[2-[[2-[2-[2-[[(4S)-4-carboxy-4-(17-carboxyheptadecanoylamino)butanoyl]amino]ethoxy]ethoxy]acetyl]amino]ethoxy]ethoxy]acetyl]amino]butanoyl]amino]butanoyl]-[Thr16,Glu21,Lys24,Leu27,Ser28]-Glucagon] (H-HSQGTFTSDYSKYLDTRRAQEFVK([γGlu-γGlu-AEEA-AEEA-γGlu-C18 diacid])WLLST-OH)	0.072
CC(C)C[C@H](NC(=O)[C@H](CC(=O)O)NC(=O)[C@H](CC(C)C)NC(=O)[C@H](Cc1ccc(O)cc1)NC(=O)[C@H](CCCNC(=N)N)NC(=O)[C@H](CO)NC(=O)[C@H](Cc1ccc(O)cc1)NC(=O)[C@H](CC(=O)O)NC(=O)[C@H](CO)NC(=O)[C@@H](NC(=O)[C@H](Cc1ccccc1)NC(=O)[C@@H](NC(=O)CNC(=O)[C@H](CCC(N)=O)NC(=O)[C@H](CO)NC(=O)[C@@H](N)Cc1c[nH]cn1)[C@@H](C)O)[C@@H](C)O)C(=O)N[C@@H](CCCNC(=N)N)C(=O)N[C@@H](CCCNC(=N)N)C(=O)N[C@@H](C)C(=O)N[C@@H](CCC(N)=O)C(=O)N[C@@H](CC(=O)O)C(=O)N[C@@H](Cc1ccccc1)C(=O)N[C@H](C(=O)N[C@@H](CCCCNC(=O)COCCOCCNC(=O)COCCOCCNC(=O)CC[C@H](NC(=O)CC[C@H](NC(=O)CC[C@H](NC(=O)CCCCCCCCCCCCCCCCC(=O)O)C(=O)O)C(=O)O)C(=O)O)C(=O)N[C@@H](Cc1c[nH]c2ccccc12)C(=O)N[C@@H](CC(C)C)C(=O)N[C@@H](CC(C)C)C(=O)N[C@@H](CO)C(=O)N[C@H](C(=O)O)[C@@H](C)O)C(C)C [Example 28, N^ε24-[2-[2-[2-[[2-[2-[2-[[(4S)-4-carboxy-4-[[(4S)-4-carboxy-4-[[(4S)-4-carboxy-4-(17-carboxyheptadecanoylamino)butanoyl]amino]butanoyl]amino]butanoyl]amino]ethoxy]ethoxy]acetyl]amino]ethoxy]ethoxy]acetyl]-[Arg^12,Leu^16,Lys^24,Leu^27,Ser^28]-Glucagon] (H-HSQGTFTSDYSRYLDLRRAQDFVK([AEEA-AEEA-γGlu-γGlu-γGlu-C18 diacid])WLLST-OH)	0.1
